From ChEMBL document CHEMBL1201862, “PubChem BioAssay data set” (2004)
Activity calls are given as the source filed them.

What was measured:
[1] = inhibitors of intracellular T. cruzi replication, confirmation, NIH3T3 host cells, beta-gal luminescence (AID 2044); type: functional, cell-based;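 also: intracellular parasites grown in NIH/3T3 mouse fibroblasts as host cells; luminescent beta-galactosidase reporter signal from transgenic T. cruzi replicating inside host cells; inhibitors lower the luminescence signal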
[2] = cytotoxicity toward NIH3T3 fibroblasts, dose response, counter-screen, cell-based, ATP luminescence, mouse fibroblasts (AID 2010); type: functional;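 also: cells exposed to compound for about 90 hours before reading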
[3] = Counterscreen for AddAB inhibitors: absorbance-based bacterial cell-based high throughput dose response assay for inhibitors of bacterial viability. [Related pubchem assays (depositor defined):AID435030, AID449728, AID449731, AID488942, AID488955, AID488956]; type: functional
cells = type: functional
[4] = target: T1, Replicative DNA helicase DnaB (Mycobacterium tuberculosis, UniProt P9WMR3); assay: DnaB intein splicing inhibitors, dose response, biochemical, cell-free fluorescence (AID 449749); type: functional
T1 sequence (P9WMR3 whole entry): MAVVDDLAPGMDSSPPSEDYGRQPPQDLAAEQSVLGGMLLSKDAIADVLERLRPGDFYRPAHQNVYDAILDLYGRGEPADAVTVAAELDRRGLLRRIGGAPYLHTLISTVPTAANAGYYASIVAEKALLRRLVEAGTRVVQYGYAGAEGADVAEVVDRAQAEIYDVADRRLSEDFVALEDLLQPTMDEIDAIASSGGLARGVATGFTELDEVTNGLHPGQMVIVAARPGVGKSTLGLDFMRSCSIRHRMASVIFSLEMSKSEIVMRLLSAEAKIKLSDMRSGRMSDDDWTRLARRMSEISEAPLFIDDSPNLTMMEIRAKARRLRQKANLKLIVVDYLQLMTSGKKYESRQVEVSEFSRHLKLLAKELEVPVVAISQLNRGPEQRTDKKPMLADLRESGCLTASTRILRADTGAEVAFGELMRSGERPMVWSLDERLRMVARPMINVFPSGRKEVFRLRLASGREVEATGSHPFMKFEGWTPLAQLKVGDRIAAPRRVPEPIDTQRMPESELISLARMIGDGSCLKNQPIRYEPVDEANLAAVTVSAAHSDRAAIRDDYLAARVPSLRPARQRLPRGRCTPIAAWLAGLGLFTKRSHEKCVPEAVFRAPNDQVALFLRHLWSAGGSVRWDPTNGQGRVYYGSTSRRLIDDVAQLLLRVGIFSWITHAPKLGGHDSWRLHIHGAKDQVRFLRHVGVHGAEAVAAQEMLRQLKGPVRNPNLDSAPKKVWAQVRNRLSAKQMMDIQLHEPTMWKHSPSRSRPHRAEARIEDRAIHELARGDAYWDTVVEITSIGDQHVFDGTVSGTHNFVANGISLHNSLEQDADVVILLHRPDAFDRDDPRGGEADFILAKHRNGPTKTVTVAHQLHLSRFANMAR

[5] = Shn3 3'UTR reporter inhibitors, dose response, cell-based, Clone20 osteoblasts, firefly luciferase, cherry-picked (AID 624132); type: functional;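 also: firefly luciferase luminescence from reporter carrying the Shn3 3'UTR in osteoblasts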
[6] = target: T2, Sentrin-specific protease 6 (Homo sapiens, UniProt Q9GZR1); type: functional;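 also: Luminescence-based dose-response confirmatory assay of SENP6 inhibition, following up an ultra-high-throughput screen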
T2 sequence (Q9GZR1 whole entry): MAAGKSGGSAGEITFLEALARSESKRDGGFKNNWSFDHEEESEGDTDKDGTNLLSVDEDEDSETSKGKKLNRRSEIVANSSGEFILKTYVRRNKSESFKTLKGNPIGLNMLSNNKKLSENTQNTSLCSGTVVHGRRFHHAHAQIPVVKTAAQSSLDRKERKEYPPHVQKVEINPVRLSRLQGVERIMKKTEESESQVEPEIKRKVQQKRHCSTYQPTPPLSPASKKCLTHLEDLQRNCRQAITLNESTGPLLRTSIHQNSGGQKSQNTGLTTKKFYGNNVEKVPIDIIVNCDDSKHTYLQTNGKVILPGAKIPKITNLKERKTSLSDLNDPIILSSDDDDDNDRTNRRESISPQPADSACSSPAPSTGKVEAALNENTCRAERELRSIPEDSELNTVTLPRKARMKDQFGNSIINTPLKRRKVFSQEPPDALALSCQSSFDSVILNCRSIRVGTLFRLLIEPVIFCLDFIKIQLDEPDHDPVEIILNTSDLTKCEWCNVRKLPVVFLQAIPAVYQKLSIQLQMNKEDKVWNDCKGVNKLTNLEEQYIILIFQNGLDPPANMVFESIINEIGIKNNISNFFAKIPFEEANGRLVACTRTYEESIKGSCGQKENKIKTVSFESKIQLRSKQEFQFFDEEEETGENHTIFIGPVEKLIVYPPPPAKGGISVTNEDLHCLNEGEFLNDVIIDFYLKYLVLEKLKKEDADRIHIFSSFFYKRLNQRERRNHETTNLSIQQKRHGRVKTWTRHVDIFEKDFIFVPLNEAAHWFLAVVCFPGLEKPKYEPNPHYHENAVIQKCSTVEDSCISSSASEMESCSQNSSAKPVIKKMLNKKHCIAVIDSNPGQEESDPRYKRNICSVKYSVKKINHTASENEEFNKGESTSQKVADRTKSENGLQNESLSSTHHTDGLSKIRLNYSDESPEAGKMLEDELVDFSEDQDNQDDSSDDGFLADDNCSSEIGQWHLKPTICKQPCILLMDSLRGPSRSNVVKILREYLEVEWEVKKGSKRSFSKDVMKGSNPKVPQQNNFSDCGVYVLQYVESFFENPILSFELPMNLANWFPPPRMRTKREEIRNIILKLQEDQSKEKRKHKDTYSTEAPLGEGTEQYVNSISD

Hexokinase-1 = Hexokinase-1 (Homo sapiens, UniProt P19367); assay: hexokinase 1 activators, dose response, selectivity assay for HKDC1 activator project, biochemical (AID 504762); type: functional
Hexokinase-1, sequence (P19367 whole entry): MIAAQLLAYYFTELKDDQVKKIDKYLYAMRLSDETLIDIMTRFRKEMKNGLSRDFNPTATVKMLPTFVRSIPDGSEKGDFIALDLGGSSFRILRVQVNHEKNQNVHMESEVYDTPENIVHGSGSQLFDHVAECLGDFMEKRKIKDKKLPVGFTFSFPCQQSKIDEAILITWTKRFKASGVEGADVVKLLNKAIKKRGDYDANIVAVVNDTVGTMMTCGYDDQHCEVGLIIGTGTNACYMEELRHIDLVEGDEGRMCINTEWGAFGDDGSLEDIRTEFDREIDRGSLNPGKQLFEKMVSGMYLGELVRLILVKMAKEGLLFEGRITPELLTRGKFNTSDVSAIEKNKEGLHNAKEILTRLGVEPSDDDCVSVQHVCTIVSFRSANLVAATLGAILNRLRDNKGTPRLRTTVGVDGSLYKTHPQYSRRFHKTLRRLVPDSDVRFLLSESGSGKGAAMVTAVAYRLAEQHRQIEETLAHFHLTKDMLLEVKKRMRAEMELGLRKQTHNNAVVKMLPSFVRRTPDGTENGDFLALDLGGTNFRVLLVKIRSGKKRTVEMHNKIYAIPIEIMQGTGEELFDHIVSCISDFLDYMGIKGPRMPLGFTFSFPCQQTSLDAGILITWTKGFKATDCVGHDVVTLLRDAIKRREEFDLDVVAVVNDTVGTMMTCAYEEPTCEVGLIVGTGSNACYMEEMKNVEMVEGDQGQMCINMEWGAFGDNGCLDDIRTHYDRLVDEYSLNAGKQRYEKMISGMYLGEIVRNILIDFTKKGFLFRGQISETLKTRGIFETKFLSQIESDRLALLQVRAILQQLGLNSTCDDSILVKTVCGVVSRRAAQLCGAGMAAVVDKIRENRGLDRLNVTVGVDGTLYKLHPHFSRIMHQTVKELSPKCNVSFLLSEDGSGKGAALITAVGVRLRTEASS

SMILES | EC50 [1] | EC50 [2] | IC50 [3] | IC50 (cells) | AC50 [4] | AC50 [5] | IC50 [6] | EC50 (Hexokinase-1)
O=C(CNc1cccc2ccccc12)N/N=C/c1ccc([N+](=O)[O-])o1 | < 0.1 µM (active) | > 60 µM (not active) | > 118 µM (inactive) | 3.24 µM (active) |  |  |  | 
Cc1ccc(NC(=O)C2=C(c3ccccc3)S(=O)(=O)CCS2(=O)=O)cc1 | 1.97 µM (active) | 2.48 µM (active) |  | 38.3 µM (active) | 2.18 µM (active) | 0.558 µM (active) |  | 
O=C(O)CSc1cc(NS(=O)(=O)c2ccc(Br)cc2)c2ccccc2c1O |  |  |  |  | 0.883 µM (active) |  |  | 
O=C(CC(O)(C(F)(F)F)C(F)(F)F)Nc1ccc(Cl)c(Cl)c1 |  |  | 39 µM (inactive) |  |  | 4.97 µM (active) |  | 
O=C1NC(=S)N/C1=C/c1cc2c(cc1[N+](=O)[O-])OCO2 |  |  |  |  |  |  | 14.1 µM (active) | 37.9 µM (inactive)
